Reference: ChEMBL document CHEMBL1201862, “PubChem BioAssay data set” (2004)
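Grown in 96-well plates, cells were treated for 48 hours with each compound at five concentrations. Insufficient inhibition: endpoint recorded as highest concentration tested. GI50 = concentration required for 50% inhibition of growth.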 Calls of active or inactive are those of the source. No stated cut-off is given here; in the data, active = GI50 up to about 1.1 µM and inactive = higher.

Legend:
Assay in all cases: NCI tumour cell line growth inhibition, 48 h
[1] = system: KM-20L2
[2] = system: SR
[3] = system: RXF 393
[4] = system: SW-620
[5] = system: UACC-62
[6] = system: SNB-19
[7] = system: DLD-1
[8] = system: UO-31
[9] = system: HCC 2998
[10] = system: UACC-257
[11] = system: HT-29
[12] = system: HCT-15
[13] = system: A498
[14] = system: IGROV-1
[15] = system: HOP-62
[16] = system: 786-0
[17] = system: DMS-114
[18] = system: HOP-18
[19] = system: OVCAR-4
[20] = system: OVCAR-8
[21] = system: CAKI-1
[22] = system: ACHN
[23] = system: NCI-H460
[24] = system: SK-OV-3
[25] = system: SF-539
[26] = system: OVCAR-3
[27] = system: K562
[28] = system: CCRF-CEM
[29] = system: MOLT-4
[30] = system: SNB-78
[31] = system: NCI-H522
[32] = system: SF-295
[33] = system: HCT-116
[34] = system: HOP-92
[35] = system: LOX IMVI
[36] = system: Malme-3M
[37] = system: M14
[38] = system: NCI-H226
[39] = system: COLO 205
[40] = system: SN12C
[41] = system: SF-268
[42] = system: DMS-273
[43] = system: SK-MEL-2
[44] = system: SK-MEL-5
[45] = system: NCI-H23
[46] = system: A549
[47] = system: HL-60
[48] = system: EKVX
[49] = system: U-251
[50] = system: RXF 631
[51] = system: RPMI-8226
[52] = system: SNB-75
[53] = system: LXFL 529
[54] = system: SK-MEL-28
[55] = system: OVCAR-5

Measured: GI50

CCC(C)COC(=O)c1ccc(/N=C\c2ccc(/C=N/c3ccc(C(=O)OCC(C)CC)cc3)cc2)cc1 (stereo not given)
inactive: [1] > 100 µM | [2] > 100 µM | [3] > 100 µM | [4] > 100 µM | [5] > 100 µM | [6] > 100 µM | [7] > 100 µM | [8] 10.5 µM | [9] > 100 µM | [10] > 100 µM | [11] > 100 µM | [13] > 100 µM | [14] > 100 µM | [15] > 100 µM | [16] > 100 µM | [17] > 100 µM | [18] > 100 µM | [19] > 100 µM | [20] > 100 µM | [21] > 100 µM | [22] > 100 µM | [23] > 100 µM | [24] > 100 µM | [25] > 100 µM | [26] > 100 µM | [27] > 100 µM | [28] > 100 µM | [29] > 100 µM | [30] > 100 µM | [31] > 100 µM | [32] > 100 µM | [33] > 100 µM | [34] > 100 µM | [35] > 100 µM | [36] > 100 µM | [37] > 100 µM | [38] > 100 µM | [39] > 100 µM | [40] > 100 µM | [41] > 100 µM | [42] > 100 µM | [43] > 100 µM | [44] > 100 µM | [45] > 100 µM | [46] > 100 µM | [47] > 100 µM | [48] > 100 µM | [49] > 100 µM | [50] > 100 µM | [51] > 100 µM | [52] > 100 µM | [53] > 100 µM | [54] > 100 µM | [55] > 100 µM
> 100 µM: [12]
